ChEMBL document CHEMBL1153480, “Study on the potential anti-cancer activity of phosphonium and ammonium-based ionic liquids” (2009)

Key:
Type in all cases: functional
K562 = test: Cytotoxicity against human K562 cells by SRB assay; conditions: read-out: LC50 (the source's name)
KM12 [1] = test: cells; conditions: Homo sapiens
Description: Growth inhibition of human KM12 cells assessed as cell growth at 10 uM by SRB assay

OVCAR-3 [2] = test: cells; conditions: Homo sapiens
Description: Growth inhibition of human OVCAR-3 cells assessed as drug level required for 50% reduction in net protein increase by SRB assay relative to control

HT-29 = test: cells; conditions: Homo sapiens
Description: Growth inhibition of human HT-29 cells assessed as drug level required for 50% reduction in net protein increase by SRB assay relative to control

UO-31 [3] = test: cells; conditions: Homo sapiens
Description: Growth inhibition of human UO31 cells assessed as cell growth at 10 uM by SRB assay

EKVX = test: cells; conditions: Homo sapiens
Description: Growth inhibition of human EKVX cells assessed as drug level required for 50% reduction in net protein increase by SRB assay relative to control

PC-3 [4] = test: Cytotoxicity against human PC3 cells by SRB assay; conditions: read-out: LC50 (the source's name)
UACC-257 = test: cells; conditions: Homo sapiens
Description: Growth inhibition of human UACC257 cells assessed as drug level required for 50% reduction in net protein increase by SRB assay relative to control

NCI-H322M = test: cells; conditions: Homo sapiens
Description: Growth inhibition of human NCI-H322M cells assessed as drug level required for 50% reduction in net protein increase by SRB assay relative to control

SNB-19 = test: cells; conditions: Homo sapiens
Description: Growth inhibition of human SNB19 cells assessed as cell growth at 10 uM by SRB assay

OVCAR-8 = test: cells; conditions: Homo sapiens
Description: Growth inhibition of human OVCAR8 cells assessed as drug level required for 50% reduction in net protein increase by SRB assay relative to control

NCI-H460 [5] = test: Cytotoxicity against human NCI-H460 cells by SRB assay; conditions: read-out: LC50 (the source's name)
SK-MEL-28 = test: cells; conditions: Homo sapiens
Description: Growth inhibition of human SK-MEL-28 cells assessed as drug level required for 50% reduction in net protein increase by SRB assay relative to control

PC-3 [6] = test: cells; conditions: Homo sapiens
Description: Growth inhibition of human PC3 cells assessed as drug level required for 50% reduction in net protein increase by SRB assay relative to control

RXF 393 [7] = test: cells; conditions: Homo sapiens
Description: Growth inhibition of human RFX393 cells assessed as cell growth at 10 uM by SRB assay

T47D [8] = test: cells; conditions: Homo sapiens
Description: Growth inhibition of human T47D cells assessed as drug level required for 50% reduction in net protein increase by SRB assay relative to control

HOP-62 [9] = test: Cytotoxicity against human HOP62 cells by SRB assay; conditions: read-out: LC50 (the source's name)
cells [10] = conditions: Homo sapiens, CAKI
Description: Growth inhibition of human CAKI cells assessed as drug level required for 50% reduction in net protein increase by SRB assay relative to control

MDA-MB-468 [11] = test: cells; conditions: Homo sapiens
Description: Growth inhibition of human MDA-MB-468 cells assessed as cell growth at 10 uM by SRB assay

OVCAR-5 [12] = test: cells; conditions: Homo sapiens
Description: Growth inhibition of human OVCAR5 cells assessed as cell growth at 10 uM by SRB assay

HCC 2998 [13] = test: Cytotoxicity against human HCC2998 cells by SRB assay; conditions: read-out: LC50 (the source's name)
SK-MEL-2 [14] = test: cells; conditions: Homo sapiens
Description: Growth inhibition of human SK-MEL-2 cells assessed as cell growth at 10 uM by SRB assay

HCC 2998 [15] = test: cells; conditions: Homo sapiens
Description: Growth inhibition of human HCC2998 cells assessed as cell growth at 10 uM by SRB assay

A549 [16] = test: cells; conditions: Homo sapiens
Description: Growth inhibition of human A549 cells assessed as drug level required for 50% reduction in net protein increase by SRB assay relative to control

SW-620 = test: Cytotoxicity against human SW620 cells by SRB assay; conditions: read-out: LC50 (the source's name)
A549 [17] = test: Cytotoxicity against human A549 cells by SRB assay; conditions: read-out: LC50 (the source's name)
Malme-3M [18] = test: cells; conditions: Homo sapiens
Description: Growth inhibition of human MALME-3M cells assessed as drug level required for 50% reduction in net protein increase by SRB assay relative to control

RPMI-8226 = test: cells; conditions: Homo sapiens
Description: Growth inhibition of human RPMI8226 cells assessed as drug level required for 50% reduction in net protein increase by SRB assay relative to control

cells [19] = conditions: Homo sapiens, Hs-578T
Description: Growth inhibition of human Hs 578T cells assessed as drug level required for 50% reduction in net protein increase by SRB assay relative to control

HCT-116 = test: cells; conditions: Homo sapiens
Description: Growth inhibition of human HCT116 cells assessed as cell growth at 10 uM by SRB assay

KM12 [20] = test: Cytotoxicity against human KM12 cells by SRB assay; conditions: read-out: LC50 (the source's name)
SK-OV-3 = test: Cytotoxicity against human SKOV3 cells by SRB assay; conditions: read-out: LC50 (the source's name)
MDA-MB-231 = test: cells; conditions: Homo sapiens
Description: Growth inhibition of human MDA-MB-231 cells assessed as drug level required for 50% reduction in net protein increase by SRB assay relative to control

HOP-62 [21] = test: cells; conditions: Homo sapiens
Description: Growth inhibition of human HOP62 cells assessed as drug level required for 50% reduction in net protein increase by SRB assay relative to control

786-0 = test: cells; conditions: Homo sapiens, read-out: LC50 (the source's name)
Description: Cytotoxicity against human 786-0 cells by SRB assay

DU-145 [22] = test: Cytotoxicity against human DU145 cells by SRB assay; conditions: read-out: LC50 (the source's name)
CCRF-CEM = test: cells; conditions: Homo sapiens
Description: Growth inhibition of human CCRF-CEM cells assessed as drug level required for 50% reduction in net protein increase by SRB assay relative to control

SF-268 [23] = test: Cytotoxicity against human SF268 cells by SRB assay; conditions: read-out: LC50 (the source's name)
HOP-92 = test: cells; conditions: Homo sapiens
Description: Growth inhibition of human HOP92 cells assessed as cell growth at 10 uM by SRB assay

DU-145 [24] = test: cells; conditions: Homo sapiens
Description: Growth inhibition of human DU145 cells assessed as cell growth at 10 uM by SRB assay

HL-60(TB) = test: cells; conditions: Homo sapiens
Description: Growth inhibition of human HL-60(TB) cells assessed as cell growth at 10 uM by SRB assay

A549 [25] = test: cells; conditions: Homo sapiens; remark: listed apart in the source
Description: Growth inhibition of human A549 cells assessed as cell growth at 10 uM by SRB assay

UO-31 [26] = test: cells; conditions: Homo sapiens; remark: listed apart in the source
Description: Growth inhibition of human UO31 cells assessed as drug level required for 50% reduction in net protein increase by SRB assay relative to control

OVCAR-4 = test: cells; conditions: Homo sapiens
Description: Growth inhibition of human OVCAR4 cells assessed as drug level required for 50% reduction in net protein increase by SRB assay relative to control

MCF7 [27] = test: cells; conditions: Homo sapiens
Description: Growth inhibition of human MCF7 cells assessed as drug level required for 50% reduction in net protein increase by SRB assay relative to control

IGROV-1 = test: Cytotoxicity against human IGROV1 cells by SRB assay; conditions: read-out: LC50 (the source's name)
SNB-75 = test: cells; conditions: Homo sapiens
Description: Growth inhibition of human SNB75 cells assessed as drug level required for 50% reduction in net protein increase by SRB assay relative to control

SF-539 = test: cells; conditions: Homo sapiens
Description: Growth inhibition of human SF539 cells assessed as cell growth at 10 uM by SRB assay

RXF 393 [28] = test: Cytotoxicity against human RFX393 cells by SRB assay; conditions: read-out: LC50 (the source's name)
LOX IMVI = test: cells; conditions: Homo sapiens
Description: Growth inhibition of human LOXIMVI cells assessed as drug level required for 50% reduction in net protein increase by SRB assay relative to control

SF-295 = test: cells; conditions: Homo sapiens
Description: Growth inhibition of human SF295 cells assessed as drug level required for 50% reduction in net protein increase by SRB assay relative to control

TK-10 = test: cells; conditions: Homo sapiens
Description: Growth inhibition of human TK10 cells assessed as cell growth at 10 uM by SRB assay

HCT-15 = test: cells; conditions: Homo sapiens
Description: Growth inhibition of human HCT15 cells assessed as cell growth at 10 uM by SRB assay

COLO 205 = test: cells; conditions: Homo sapiens
Description: Growth inhibition of human COLO205 cells assessed as cell growth at 10 uM by SRB assay

[29] = Cytotoxicity against human CAKI cells by SRB assay; conditions: read-out: LC50 (the source's name)
NCI-H460 [30] = test: cells; conditions: Homo sapiens
Description: Growth inhibition of human NCI-H460 cells assessed as cell growth at 10 uM by SRB assay

SK-MEL-2 [31] = test: Cytotoxicity against human SK-MEL-2 cells by SRB assay; conditions: read-out: LC50 (the source's name)
SN12C = test: cells; conditions: Homo sapiens
Description: Growth inhibition of human SN12C cells assessed as cell growth at 10 uM by SRB assay

OVCAR-3 [32] = test: cells; conditions: Homo sapiens; remark: listed apart in the source
Description: Growth inhibition of human OVCAR-3 cells assessed as cell growth at 10 uM by SRB assay

OVCAR-5 [33] = test: cells; conditions: Homo sapiens; remark: listed apart in the source
Description: Growth inhibition of human OVCAR5 cells assessed as drug level required for 50% reduction in net protein increase by SRB assay relative to control

ACHN = test: cells; conditions: Homo sapiens
Description: Growth inhibition of human ACHN cells assessed as cell growth at 10 uM by SRB assay

NCI-H460 [34] = test: cells; conditions: Homo sapiens; remark: listed apart in the source
Description: Growth inhibition of human NCI-H460 cells assessed as drug level required for 50% reduction in net protein increase by SRB assay relative to control

T47D [35] = test: Cytotoxicity against human T47D cells by SRB assay; conditions: read-out: LC50 (the source's name)
A498 = test: cells; conditions: Homo sapiens
Description: Growth inhibition of human A498 cells assessed as drug level required for 50% reduction in net protein increase by SRB assay relative to control

SR [36] = test: cells; conditions: Homo sapiens
Description: Growth inhibition of human SR cells assessed as drug level required for 50% reduction in net protein increase by SRB assay relative to control

Malme-3M [37] = test: cells; conditions: Homo sapiens; remark: listed apart in the source
Description: Growth inhibition of human MALME-3M cells assessed as cell growth at 10 uM by SRB assay

SF-268 [38] = test: cells; conditions: Homo sapiens
Description: Growth inhibition of human SF268 cells assessed as drug level required for 50% reduction in net protein increase by SRB assay relative to control

UACC-62 = test: cells; conditions: Homo sapiens
Description: Growth inhibition of human UACC62 cells assessed as cell growth at 10 uM by SRB assay

SR [39] = test: cells; conditions: Homo sapiens; remark: listed apart in the source
Description: Growth inhibition of human SR cells assessed as cell growth at 10 uM by SRB assay

M14 = test: Cytotoxicity against human M14 cells by SRB assay; conditions: read-out: LC50 (the source's name)
MDA-MB-468 [40] = test: cells; conditions: Homo sapiens; remark: listed apart in the source
Description: Growth inhibition of human MDA-MB-468 cells assessed as drug level required for 50% reduction in net protein increase by SRB assay relative to control

MCF7 [41] = test: Cytotoxicity against human MCF7 cells by SRB assay; conditions: read-out: LC50 (the source's name)

CCCCCCCCCCCCCCCCCCPCCCCCCCCCCCCCC (configuration not stated) [MONO(OCTADECYL(TETRADECYL)PHOSPHONIUM) MONO(HEXAFLUOROPHOSPHATE(V)) MONO(TETRAFLUOROBORATE)]
CC50 (K562): > 100000 nM | growth at 10 µM (KM12 [1]): -52.2% | GI50 (OVCAR-3 [2]): 118 nM | GI50 (HT-29): 61 nM | growth at 10 µM (UO-31 [3]): -44.8% | GI50 (EKVX): 206 nM | CC50 (PC-3 [4]): > 100000 nM | GI50 (UACC-257): 272 nM | GI50 (NCI-H322M): 401 nM | growth at 10 µM (SNB-19): -44.9% | GI50 (OVCAR-8): 229 nM | CC50 (NCI-H460 [5]): > 100000 nM | GI50 (SK-MEL-28): 376 nM | GI50 (PC-3 [6]): 44 nM | growth at 10 µM (RXF 393 [7]): -16.9% | GI50 (T47D [8]): 89 nM | CC50 (HOP-62 [9]): > 100000 nM | GI50 (cells [10]): 350 nM | growth at 10 µM (MDA-MB-468 [11]): -62% | growth at 10 µM (OVCAR-5 [12]): -70% | CC50 (HCC 2998 [13]): > 100000 nM | growth at 10 µM (SK-MEL-2 [14]): -64.7% | growth at 10 µM (HCC 2998 [15]): -76.4% | GI50 (A549 [16]): 391 nM | CC50 (SW-620): > 100000 nM | CC50 (A549 [17]): > 100000 nM | GI50 (Malme-3M [18]): 34 nM | GI50 (RPMI-8226): 16 nM | GI50 (cells [19]): 84 nM | growth at 10 µM (HCT-116): -13.1% | CC50 (KM12 [20]): > 100000 nM | CC50 (SK-OV-3): > 100000 nM | GI50 (MDA-MB-231): 107 nM | GI50 (HOP-62 [21]): 399 nM | CC50 (786-0): > 100000 nM | CC50 (DU-145 [22]): > 100000 nM | GI50 (CCRF-CEM): 34 nM | CC50 (SF-268 [23]): > 100000 nM | growth at 10 µM (HOP-92): -55.5% | growth at 10 µM (DU-145 [24]): -54.3% | growth at 10 µM (HL-60(TB)): 24.9% | growth at 10 µM (A549 [25]): 2.21% | GI50 (UO-31 [26]): 398 nM | GI50 (OVCAR-4): 125 nM | GI50 (MCF7 [27]): 253 nM | CC50 (IGROV-1): > 100000 nM | GI50 (SNB-75): 223 nM | growth at 10 µM (SF-539): -83.2% | CC50 (RXF 393 [28]): > 100000 nM | GI50 (LOX IMVI): 50 nM | GI50 (SF-295): 251 nM | growth at 10 µM (TK-10): -75% | growth at 10 µM (HCT-15): -35.8% | growth at 10 µM (COLO 205): -6.75% | CC50 [29]: > 100000 nM | growth at 10 µM (NCI-H460 [30]): -41.9% | CC50 (SK-MEL-2 [31]): > 100000 nM | growth at 10 µM (SN12C): -70.6% | growth at 10 µM (OVCAR-3 [32]): -51% | GI50 (OVCAR-5 [33]): 337 nM | growth at 10 µM (ACHN): -58.9% | GI50 (NCI-H460 [34]): 346 nM | CC50 (T47D [35]): > 100000 nM | GI50 (A498): 472 nM | GI50 (SR [36]): 107 nM | growth at 10 µM (Malme-3M [37]): -61.6% | GI50 (SF-268 [38]): 88 nM | growth at 10 µM (UACC-62): -77.4% | growth at 10 µM (SR [39]): 12.1% | CC50 (M14): > 100000 nM | GI50 (MDA-MB-468 [40]): 53 nM | CC50 (MCF7 [41]): > 100000 nM
